According to patent US20220002279A1, “NOVEL IMIDAZOLE DERIVATIVE” (priority 2018, published 2022):
≈ marks a conversion by molar mass, not a printed value. Like-named read-outs stand apart in the source and are kept apart here.

Assays:
[1] = tested on: Klebsiella pneumoniae strain ATCC13883; experiment: Antimicrobial activity, MIC by broth microdilution; assay type: cell-based; conditions: ATCC13883, cation-adjusted Mueller-Hinton broth, about 5×10^5 CFU/mL, 35° C., about 18 hours, read-out: MIC Klebsiella pneumoniae ATCC13883
Text: (§1) Test Example 4 Evaluation of the Antimicrobial Activity
(§2) For minimum inhibitory concentration (MIC) measurement, the following broth microdilution method was applied as adapted from the standard procedure recommended by the CLSI (Clinical and Laboratory Standards Institute).
(§3) The bacteria used were Pseudomonas aeruginosa strain ATCC27853, Escherichia coli strain ATCC25922, and Klebsiella pneumoniae strain ATCC13883. After culture overnight on a heart infusion agar medium, the cells of a test bacterium were scraped off, and a bacterial solution suspended to have a turbidity of level 0.5 on the McFarland scale was diluted and used as an inoculum solution. The inoculum solution was inoculated in a cation-adjusted Mueller-Hinton broth medium containing a test compound so that the final inoculation concentration was about 5×10^5 CFU/mL, and cultured at 35° C. for about 18 hours. A minimum drug concentration at which no cell growth was visible to the naked eye was designated as MIC. […] In the table, ND represents the case where suppression of the cell growth in a drug concentration-dependent manner was not observed (Not Determined), and NT represents that no test was conducted (Not Tested).

[2] = tested on: Escherichia coli strain ATCC25922; experiment: Antimicrobial activity, MIC by broth microdilution; assay type: cell-based; conditions: ATCC25922, 18 h, cation-adjusted Mueller-Hinton broth, about 5×10^5 CFU/mL, 35° C., about 18 hours, read-out: MIC Escherichia coli ATCC25922
Text: as §1, §2, §3

[3] = tested on: Pseudomonas aeruginosa strain ATCC27853; experiment: Antimicrobial activity, MIC by broth microdilution; assay type: cell-based; conditions: ATCC27853, 18 h, cation-adjusted Mueller-Hinton broth, about 5×10^5 CFU/mL, 35° C., about 18 hours, read-out: MIC Pseudomonas aeruginosa ATCC27853
Text: as §1, §2, §3

[4] = target: T1, Escherichia coli LpxC enzyme (Escherichia coli, UniProt P0A725); experiment: Inhibitory activity on Escherichia coli LpxC enzyme (fluorescamine method); assay type: biochemical
T1 construct: made in house; host or cells: Escherichia coli
T1 sequence (P0A725 1-305): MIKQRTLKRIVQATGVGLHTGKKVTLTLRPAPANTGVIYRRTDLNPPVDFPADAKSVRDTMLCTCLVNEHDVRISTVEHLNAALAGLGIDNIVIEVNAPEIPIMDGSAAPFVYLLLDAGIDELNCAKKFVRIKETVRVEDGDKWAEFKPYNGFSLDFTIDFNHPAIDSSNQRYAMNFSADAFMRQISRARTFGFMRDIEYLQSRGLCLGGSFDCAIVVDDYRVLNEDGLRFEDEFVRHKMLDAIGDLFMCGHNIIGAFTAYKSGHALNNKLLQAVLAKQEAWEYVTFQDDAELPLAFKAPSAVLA
Experimental: To assay the activity of Escherichia coli LpxC enzyme, LpxC was reacted with its substrate, UDP-3-O-(R-3-hydroxymyristoyl)-N-acetylglucosamine, and the amount of the reaction product was quantified by the amino groups present in the product
The reaction was terminated by the addition of 1.0 mg/mL-fluorescamine dissolved in a solvent obtained by mixing an equal amount of acetonitrile and dimethylformamide with the reaction mixture, and then, a 0.2 mol/L-sodium phosphate buffer solution (pH 8.0) was added thereto, and the amount of the reaction product was detected at an excitation wavelength/fluorescence wavelength=390 nm/495 nm. An inhibition curve was obtained by performing the aforementioned reaction in the presence of various concentrations of test compounds.

[5] = fluorescamine detection, 3.1 nmol/L enzyme, 20 μmol/L substrate, pH 6.5, 120 min, read-out: IC50 (inhibitory activity on Escherichia coli LpxC enzyme, Fluoresamine method)

Row | Structure (SMILES) | MIC [1] [µg/mL] | MIC [2] [µg/mL] | MIC [3] [µg/mL] | IC50 [4] [nM] | IC50 [4, 5] [nM]
1 | COCC1CC1C#Cc1ccc(-c2cc(Cn3ccnc3[C@H](C)O)no2)cc1 (stereo in doubt) [Compound 66, (1S)-1-(1-{[5-(4-{[trans-2-(Methoxymethyl)cyclopropyl]ethynyl}phenyl)-1,2-oxazol-3-yl]methyl}-1H-imidazol-2-yl)ethan-1-ol] | 0.12 (≈ 0.318 µM) | 0.12 (≈ 0.318 µM) | 32 (≈ 84.8 µM) | < 10 | 
2 | C[C@H](O)c1nccn1Cc1cc(-c2ccc(C#CC3CC3)cc2)on1 [Compound 26, (1S)-1-[1-({5-[4-(Cyclopropylethynyl)phenyl]-1,2-oxazol-3-yl}methyl)-1H-imidazol-2-yl]ethan-1-ol] | 0.25 (≈ 0.75 µM) | 0.25 (≈ 0.75 µM) | > 8 | < 10 | 
3 | C[C@H](O)c1nccn1Cc1cc(-c2ccc(C#CC3CCOCC3)cc2)on1 [Compound 31, (1S)-1-{1-[(5-{4-[(oxan-4-yl)ethynyl]phenyl}-1,2-oxazol-3-yl)methyl]-1H-imidazol-2-yl) ethan-1-ol] | 2 (≈ 5.3 µM) | 1 (≈ 2.65 µM) | > 128 |  | 32.8
4 | C[C@H](O)c1nccn1Cc1cc(-c2ccc(C#CC(C)(C)O)cc2)on1 [Compound 32, 4-(4-[3-({2-[(1S)-1-hydroxyethyl]-1H-imidazol-1-yl}methyl)-1,2-oxazol-5-yl]phenyl}-2-methylbut-3-yn-2-ol] | 16 (≈ 45.5 µM) | 8 (≈ 22.8 µM) | > 128 |  | 335
5 | COCCN1C[C@@H]2[C@@H](C#Cc3ccc(-c4cc(Cn5ccnc5[C@H](C)O)no4)cc3)[C@@H]2C1 [Compound 34, (1S)-1-(1-{[5-(4-{[(1R,5S,6s)-3-(2-methoxyethyl)-3-azabicyclo[3.1.0]hexan-6-yl]ethynyl}phenyl)-1,2-oxazol-3-yl]methyl}-1H-imidazol-2-yl)ethan-1-ol] | 0.5 (≈ 1.16 µM) | 0.25 (≈ 0.578 µM) | 8 (≈ 18.5 µM) |  | 108
6 | C[C@H](O)c1nccn1Cc1cc(-c2ccc(C#CC3(C)CN(C)C3)cc2)on1 [Compound 35, (1S)-1-{1-[(5-{4-[(1,3-dimethylazetidin-3-yl)ethynyl]phenyl}-1,2-oxazol-3-yl)methyl]-1H-imidazol-2-yl}ethan-1-ol] | 16 (≈ 42.5 µM) | 4 (≈ 10.6 µM) | > 128 |  | 815
7 | C[C@H](O)c1nccn1Cc1cc(-c2ccc(C#C[C@@H]3[C@H]4CN(C)C[C@@H]34)cc2)on1 [Compound 36, (1S)-1-(1-{[5-(4-{[(1R,5S,6s)-3-methyl-3-azabicyclo[3.1.0]hexan-6-yl]ethynyl}phenyl)-1,2-oxazol-3-yl]methyl}-1H-imidazol-2-yl)ethan-1-ol] | 1 (≈ 2.57 µM) | 0.5 (≈ 1.29 µM) | 16 (≈ 41.2 µM) |  | 98.7
8 | CC(=O)N1C[C@@H]2[C@@H](C#Cc3ccc(-c4cc(Cn5ccnc5[C@H](C)O)no4)cc3)[C@@H]2C1 [Compound 37, 1-[(1R,5S,6s)-6-({4-[3-({2-[(1S)-1-Hydroxyethyl]-1H-imidazol-1-yl}methyl)-1,2-oxazol-5-yl]phenyl}ethynyl)-3-azabicyclo[3.1.0]hexan-3-yl]ethan-1-one] | 2 (≈ 4.8 µM) | 1 (≈ 2.4 µM) | 32 (≈ 76.8 µM) |  | 58.2
9 | C[C@H](O)c1nccn1[C@H](CN(C)C)c1cc(-c2ccc(C#C[C@@H]3[C@H]4CN(CCO)C[C@@H]34)cc2)on1 [Compound 39, (1S)-1-(1-{(1R)-2-(Dimethylamino)-1-[5-(4-{[(1R,5S,6s)-3-(2-hydroxyethyl)-3-azabicyclo[3.1.0]hexan-6-yl]ethynyl}phenyl)-1,2-oxazol-3-yl]ethyl}-1H-imidazol-2-yl)ethan-1-ol] | 4 (≈ 8.41 µM) | 2 (≈ 4.21 µM) | 8 (≈ 16.8 µM) |  | 1820
10 | COCCN1CC(C)(C#Cc2ccc(-c3cc(Cn4ccnc4[C@H](C)O)no3)cc2)C1 [Compound 41, (1S)-1-(1-{[5-(4-{[l-(2-methoxyethyl)-3-methylazetidin-3-yl]ethynyl}phenyl)-1,2-oxazol-3-yl]methyl}-1H-imidazol-2-yl)ethan-1-ol] | 4 (≈ 9.51 µM) | 2 (≈ 4.76 µM) | > 128 |  | 231
11 | C[C@H](O)c1nccn1Cc1cc(-c2ccc(C#C[C@@H]3[C@H]4CN(CC5COC5)C[C@@H]34)cc2)on1 [Compound 42, (1S)-1-[1-({5-[4-({(1R,5S,6s)-3-[(Oxetan-3-yl)methyl]-3-azabicyclo[3.1.0]hexan-6-yl}ethynyl)phenyl]-1,2-oxazol-3-yl}methyl)-1H-imidazol-2-yl]ethan-1-ol] | 0.5 (≈ 1.12 µM) | 0.25 (≈ 0.562 µM) | 16 (≈ 36 µM) |  | 46.8
12 | C[C@H](O)c1nccn1Cc1cc(-c2ccc(C#CC(C)(C)C)cc2)on1 [Compound 43, (1S)-1-[1-({5-[4-(3,3-dimethylbut-1-yn-1-yl)phenyl]-1,2-oxazol-3-yl}methyl)-1H-imidazol-2-yl]ethan-1-ol] | 2 (≈ 5.72 µM) | 1 (≈ 2.86 µM) | > 32 |  | 47.1
13 | C[C@H](O)c1nccn1Cc1cc(-c2ccc(C#CC3COC3)cc2)on1 [Compound 44, (1S)-1-{1-[(5-{4-[(oxetan-3-yl)ethynyl]phenyl}-1,2-oxazol-3-yl)methyl]-1H-imidazol-2-yl}ethan-1-ol] | 2 (≈ 5.72 µM) | 2 (≈ 5.72 µM) | 128 (≈ 366 µM) |  | 22.7
14 | CNC1(C#Cc2ccc(-c3cc(Cn4ccnc4[C@H](C)O)no3)cc2)CC1 [Compound 45, (1S)-1-(1-{[5-(4-{[1-(Methylamino)cyclopropyl]ethynyl}phenyl)-1,2-oxazol-3-yl]methyl}-1H-imidazol-2-yl)ethan-1-ol] | 0.5 (≈ 1.38 µM) | 0.25 (≈ 0.69 µM) | 128 (≈ 353 µM) | 268 | 
15 | C[C@H](O)c1nccn1Cc1cc(-c2ccc(C#CC3C4COCC34)cc2)on1 (stereo partly drawn) [Compound 46, (1S)-1-{1-[(5-{4-[(3-oxabicyclo[3.1.0]hexan-6-yl)ethynyl]phenyl}-1,2-oxazol-3-yl)methyl]-1H-imidazol-2-yl} ethan-1-ol] | 0.12 (≈ 0.32 µM) | 0.12 (≈ 0.32 µM) | > 32 |  | 13.4
16 | C[C@H](O)c1nccn1Cc1cc(-c2ccc(C#CC3(C)COC3)cc2)on1 [Compound 47, (1S)-1-{1-[(5-{4-[(3-methyloxetan-3-yl)ethynyl]phenyl}-1,2-oxazol-3-yl)methyl]-1H-imidazol-2-yl} ethan-1-ol] | 1 (≈ 2.75 µM) | 0.5 (≈ 1.38 µM) | > 128 |  | 19.3
17 | C[C@H](O)c1nccn1Cc1cc(-c2ccc(C#CCO)cc2)on1 [Compound 48, 3-{4-[3-((2-[(1S)-1-hydroxyethyl]-1H-imidazol-1-yl}methyl)-1,2-oxazol-5-yl]phenyl}prop-2-yn-1-ol] | 32 (≈ 99 µM) | 16 (≈ 49.5 µM) | > 32 |  | 362
18 | C[C@H](O)c1nccn1Cc1cc(-c2ccc(C#CC3CCOC3)cc2)on1 (stereo partly drawn) [Compound 49, (1S)-1-{1-[(5-{4-[(oxolan-3-yl)ethynyl]phenyl}-1,2-oxazol-3-yl)methyl]-1H-imidazol-2-yl}ethan-1-ol] | 1 (≈ 2.75 µM) | 0.5 (≈ 1.38 µM) | > 32 |  | 29.6
19 | C[C@H](O)c1nccn1Cc1cc(-c2ccc(C#CC3(N(C)C)CC3)cc2)on1 [Compound 50, (1S)-1-(1-{[5-(4-{[1-(dimethylamino)cyclopropyl]ethynyl}phenyl)-1,2-oxazol-3-yl]methyl}-1H-imidazol-2-yl)ethan-1-ol] | 4 (≈ 10.6 µM) | 2 (≈ 5.31 µM) | > 128 |  | 205
20 | C[C@H](O)c1nccn1Cc1cc(-c2ccc(C#CCNC3CC3)cc2)on1 [Compound 51, (1S)-1-{1-[(5-(4-[3-(cyclopropylamino)prop-1-yn-1-yl]phenyl}-1,2-oxazol-3-yl)methyl]-1H-imidazol-2-yl}ethan-1-ol] | 2 (≈ 5.52 µM) | 1 (≈ 2.76 µM) | > 32 |  | 182
